Results published in patent US6608069B1, “Phenyl xanthine derivatives” (SmithKline Beecham Corporation, priority 1998, dated 2003).
Where a name gives a salt, the structure may show the parent alone.

System: cytokine-stimulated human umbilical vein endothelial cells
Test: Cell Adhesion Assay: adherence of fluorescently-labelled leukocytes to endothelial cell monolayers
Type: cell-based
Details: Homo sapiens; inhibition of cytokine-stimulated adhesion minus basal adhesion; calcein-AM labelled leukocytes on HUVEC monolayers
Protocol: The antiadhesion activity of compounds of the invention was determined using a modification of the previously described method, Jurgensen, C. H. et. al., J. Immunol. 144: 653-661. The adhesiveness of cytokine-stimulated human umbilical vein endothelial cells was assessed by quantitating the adherence of fluorescently-labelled (calcein-AM, Molecular Probes, Eugene, Oreg.) leukocytes to endothelial cell monolayers. Activity was determined by calculating inhibition of cytokine-stimulated adhesion minus the basal adhesion (unstimulated).

SMILES	IC50
COCCOCCOCCOCCOCCOCCOCCOCCOCCOCc1ccc(-c2nc3c([nH]2)c(=O)n(CC2CCCCC2)c(=O)n3CC2CCCCC2)cc1 [Example 96, 1,3-Bis(cyclohexylmethyl)-8-[4-(2,5,8,11,14,17,20,23,26,29-decaoxatriacont-1-yl)phenyl]-3,7-dihydro-1H-purine-2,6-dione]	49 ± 16 nM

Same assay, conditions: inhibition of cytokine-stimulated adhesion minus basal adhesion; calcein-AM labelled leukocytes on HUVEC monolayers

SMILES	IC50
COCCOCCOCCOCCOCCOCCOCCOCCOCCOC(=O)c1ccc(-c2nc3c(=O)n(CC4CCCCC4)c(=O)n(CC4CCCCC4)c3[nH]2)cc1 [Example 65, 4-(1,3-bis(cyclohexylmethyl)-1,2,3,6-tetrahydro-2,6-dioxo-9H-purin-8-yl)benzoic Acid Nonaethylene Glycol Methyl Ether Ester]	48 ± 19 nM
C#CCn1c(-c2ccc(/C=C/C(=O)OCCOCCOCCOCCOCCOCCOCCOCCOCCOC)cc2)nc2c1c(=O)n(CC1CCCCC1)c(=O)n2CC1CCCCC1 [Example 80, (E)-4-(1,3-Bis(cyclohexylmethyl)-2,3,6,7-tetrahydro-2,6-dioxo-7-(2-propynyl)-1H-purin-8-yl)cinnamic Acid Nonaethylene Glycol Methyl Ether Ester]	10 ± 4 nM
CCOC(=O)Cn1c(-c2ccc(/C=C/C(=O)OCCOCCOCCOCCOCCOCCOCCOCCOCCOC)cc2)nc2c1c(=O)n(CC1CCCCC1)c(=O)n2CC1CCCCC1 [Example 84, (E)-4-(1,3-Bis(cyclohexylmethyl)-2,3,6,7-tetrahydro-2,6-dioxo-7-(2-ethoxy-2-oxoethyl)-1H-purin-8-yl)cinnamic Acid Nonaethylene Glycol Methyl Ether Ester]	7 ± 4 nM
COCCOCCOCCOCCOCCOCCOCCOCCOCCOC(=O)/C=C/c1ccc(-c2nc3c(=O)n(Cc4cccc(F)c4)c(=O)n(Cc4cccc(F)c4)c3[nH]2)cc1 [Example 53, (E)-4-(1,3-bis(3-fluorobenzyl)-1,2,3,6-tetrahydro-2,6-dioxo-9H-purin-8-yl)cinnamic Acid Nonaethylene Glycol Methyl Ether Ester]	39 ± 13 nM
COCCOCCOCCOCCOCCOCCOCCOCCOCCOC(=O)/C=C/c1ccc(-c2nc3c(c(=O)n(CC4CCCCC4)c(=O)n3CC3CCCCC3)n2CC(=O)c2ccccc2)cc1 [Example 78, (E)-4-(1,3-Bis(cyclohexylmethyl)-2,3,6,7-tetrahydro-2,6-dioxo-7-(2-oxo-2-phenylethyl)-1H-purin-8-yl)cinnamic Acid Nonaethylene Glycol Methyl Ether Ester]	0.1 ± 0.09 nM
COCCOCCOCCOCCOCCOCCOCCOCCOCCOC(=O)/C=C/c1ccc(-c2nc3c(c(=O)n(CC4CCCCC4)c(=O)n3CC3CCCCC3)n2CN2CCOCC2)cc1 [Example 82, (E)-4-(1,3-Bis(cyclohexylmethyl)-2,3,6,7-tetrahydro-2,6-dioxo-7-(4-morpholinylmethyl)-1H-purin-8-yl)cinnamic Acid Nonaethylene Glycol Methyl Ether Ester]	19 ± 16 nM
COCCOCCOCCOCCOCCOCCOCCOCCOCCOC(=O)/C=C/c1ccc(-c2nc3c(=O)n(Cc4cccnc4)c(=O)n(Cc4cccnc4)c3[nH]2)cc1 [Example 64, (E)-4-(1,3-Bis(3-pyridinylmethyl)-1,2,3,6-tetrahydro-2,6-dioxo-9H-purin-8-yl)cinnamic Acid Nonaethylene Glycol Methyl Ether Ester]	> 1000 nM
CCn1c(-c2ccc(/C=C/C(=O)OCCOCCOCCOCCOCCOCCOCCOCCOCCOC)cc2)nc2c1c(=O)n(CC1CCCCC1)c(=O)n2CC1CCCCC1 [Example 83, (E)-4-(1,3-Bis(cyclohexylmethyl)-2,3,6,7-tetrahydro-2,6-dioxo-7-ethyl-1H-purin-8-yl)cinnamic Acid Nonaethylene Glycol Methyl Ether Ester]	28 ± 12 nM
COCCOCCOCCOCCOCCOCCOCCOCCOCCOC(=O)/C=C/c1ccc(-c2nc3c(=O)n(Cc4ccccc4)c(=S)n(Cc4ccccc4)c3[nH]2)cc1 [Example 50, (E)-4-(1,3-bis(benzyl)-1,2,3,6-tetrahydro-2-thioxo-6-oxo-9H-purin-8-yl)cinnamic Acid Nonaethylene Glycol Methyl Ether Ester]	270 ± 150 nM
COCCOCCOCCOCCOCCOCCOCCOCCOCCOC(=O)/C=C/c1cccc(-c2nc3c(=O)n(Cc4ccccc4)c(=O)n(Cc4ccccc4)c3[nH]2)c1 [Example 46, (E)-3-(1,3-bis(benzyl)-1,2,3,6-tetrahydro-2,6-dioxo-9H-purin-8-yl)cinnamic Acid Nonaethylene Glycol Methyl Ether Ester]	890 ± 420 nM
COCCOCCOCCOCCOCCOCCOCCOCCOCCOC(=O)/C=C/c1ccc(-c2nc3c(=O)n(Cc4ccccc4F)c(=O)n(Cc4ccccc4F)c3[nH]2)cc1 [Example 54, (E)-4-(1,3-bis(2-fluorobenzyl)-1,2,3,6-tetrahydro-2,6-dioxo-9H-purin-8-yl)cinnamic Acid Nonaethylene Glycol Methyl Ether Ester]	76 ± 28 nM
COCCOCCOCCOCCOCCOCCOCCOCCOCCOC(=O)/C=C/c1ccc(-c2nc3c(=O)n(C)c(=O)n(CC4CCCCC4)c3[nH]2)cc1 [Example 62]	160 ± 85 nM
COCCOCCOCCOCCOCCOCCOCCOCCOCCNC(=O)c1ccc(-c2nc3c(c(=O)n(CC4CCCCC4)c(=O)n3CC3CCCCC3)n2C)cc1 [Example 94, 4-(1,3-Bis(cyclohexylmethyl)-2,3,6,7-tetrahydro-2,6-dioxo-7-methyl-1H-purin-8-yl)benzoic Acid Nonaethylene Glycol Methyl Ether Amide]	220 ± 87 nM
O=C(/C=C/c1ccc(-c2nc3c(=O)n(CC4CCCCC4)c(=O)n(CC4CCCCC4)c3[nH]2)cc1)NCCOCCOCCOCCOCCOCCOCc1ccccc1 [Example 101, (E)-4-(1,3-Bis(cyclohexylmethyl)-1,2,3,6-tetrahydro-2,6-dioxo-9H-purin-8-yl)cinnamic Acid Hexaethylene Glycol Benzyl Ether Amide]	340 ± 94 nM
COCCOCCOCCOCCOCCOCCOCCOCCOCCOC(=O)/C=C/c1ccc(-c2nc3c(=O)n(C)c(=O)n(Cc4ccc(C#N)cc4)c3[nH]2)cc1 [Example 51, (E)-4-(1-methyl-3-(4-cyanobenzyl)-1,2,3,6-tetrahydro-2,6-dioxo-9H-purin-8-yl)cinnamic Acid Nonaethylene Glycol Methyl Ether Ester]	> 2000 nM
COCCOCCOCCOCCOCCOCCOCCOCCOCCOC(=O)/C=C/c1ccc(-c2nc3c(c(=O)n(CC4CCCCC4)c(=O)n3CC3CCCCC3)n2CC(C)=O)cc1 [Example 81, (E)-4-(1,3-Bis(cyclohexylmethyl)-2,3,6,7-tetrahydro-2,6-dioxo7-(2-oxo-2-methylethyl)-1H-purin-8-yl)cinnamic Acid Nonaethylene Glycol Methyl Ether Ester]	16 ± 18 nM
COCCOCCOCCOCCOCCOCCOCCOC(=O)/C=C/c1ccc(-c2nc3c(c(=O)n(CC4CCCCC4)c(=O)n3CC3CCCCC3)n2C)cc1 [Example 111, (E)-4-(1,3-Bis(cyclohexylmethyl)-2,3,6,7-tetrahydro-2,6-dioxo-7-methyl-1H-purin-8-yl)cinnamic Acid Heptaethylene Glycol Methyl Ether Ester]	< 0.1 nM
COCCOCCOCCOCCOCCOCCOCCOCCOCCOC(=O)/C=C/c1ccc(-c2nc3c(=O)n(CC4CCCCCC4)c(=O)n(CC4CCCCCC4)c3[nH]2)cc1 [Example 40, (E)-4-(1,3-bis(cycloheptylmethyl)-1,2,3,6-tetrahydro-2,6-dioxo-9H-purin-8-yl)cinnamic Acid Nonaethylene Glycol Methyl Ether Ester]	14 ± 7 nM
COCCOCCOCCOCCOCCOCCOCCOCCOCCOC(=O)/C=C/c1ccc(-c2nc3c(=O)n(CCc4ccccc4)c(=O)n(CCc4ccccc4)c3[nH]2)cc1 [Example 55, (E)-4-(1,3-bis(2-phenylethyl)-1,2,3,6-tetrahydro-2,6-dioxo-9H-purin-8-yl)cinnamic Acid Nonaethylene Glycol Methyl Ether Ester]	51 ± 45 nM
CCCn1c(=O)c2nc(-c3ccc(/C=C/C(=O)OCCOCCOCCOCCOCCOCCOCCOCCOCCOC)cc3)[nH]c2n(CCC)c1=O [Example 37, (E)-4-(1,3-bis(propyl)-1,2,3,6-tetrahydro-2,6-dioxo-9H-purin-8-yl)cinnamic Acid Nonaethylene Glycol Methyl Ether Ester]	98 ± 33 nM
COCCOCCOCCOCCOCCOCCOCCOCCOCCNC(=O)/C=C/c1ccc(-c2nc3c(=O)n(Cc4ccccc4)c(=O)n(Cc4ccccc4)c3[nH]2)cc1 [Example 70, (E)-4-[1,3-bis(benzyl)-1,2,3,6-tetrahydro-2,6-dioxo-9H-purin-8-y]cinnamic Acid Nonaethylene Glycol Methyl Ether Amide]	> 1000 nM
COCCOCCOCCOCCOCCOCCOCCOCCOCCOC(=O)/C=C/c1ccc(-c2nc3c(=O)n(C)c(=O)n(Cc4cccc(C#N)c4)c3[nH]2)cc1 [Example 52, (E)-4-(1-methyl-3-(3-cyanobenzyl)-1,2,3,6-tetrahydro-2,6-dioxo-9H-purin-8-yl)cinnamic Acid Nonaethylene Glycol Methyl Ether Ester]	410 ± 60 nM
COCCOCCOCCOCCOCCOCCOCCOCCOCCOC(=O)/C=C/c1ccc(-c2nc3c(c(=O)[nH]c(=O)n3CC3CCCCC3)n2C)cc1 [Example 104, (E)-4-[(3-Cyclohexylmethyl)-2,3,6,7-tetrahydro-2,6dioxo-7-methyl-1H-purin-8-yl]cinnamic Acid Nonaethylene Glycol Methyl Ether Ester]	86 ± 54 nM

Same assay, conditions: inhibition of cytokine-stimulated adhesion minus basal adhesion; calcein-AM labelled leukocytes on HUVEC monolayers; Hydrochloride

SMILES	IC50
COCCOCCOCCOCCOCCOCCOCCNCc1ccc(-c2nc3c(=O)n(CC4CCCCC4)c(=O)n(CC4CCCCC4)c3[nH]2)cc1 [Example 107, 4-[1,3-Bis(cyclohexylmethyl)-1,2,3,6-tetrahydro-2,6-dioxo-9H-purin-8-yl]benzylamine N-Heptaethylene Glycol Methyl Ether Hydrochloride]	39 ± 19 nM
